Legend:
[1] = test system: pERK after EGF stimulation in DLD1 cells; assay: ERK phosphorylation assay (alphascreen pERK); format: cell-based; conditions: Homo sapiens, DLD-1, 2 h compound, 200 ng/ml hEGF for 5 minutes, read-out: ERK phosphorylation inhibition IC50
Summary of the method: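 DLD1 cells pretreated with test compounds for 2 h, then stimulated with 200 ng/ml hEGF for 5 min. Lysates assayed by AlphaScreen SureFire for ERK1/2 p-T202/Y204, read after 2 h at 25–28 °C. % inhibition relative to the stimulated-minus-unstimulated vehicle window.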

[2] = target: T1, protein-protein interaction between hSOS1 and hKRASG12C (Homo sapiens, UniProt Q07889); assay: KRAS-SOS1 interaction assay (HTRF); format: binding; conditions: GST-hSOS1 564-1049aa, HIS-hKRASG12C, read-out: KRAS-SOS1 Interaction inhibition IC50
T1 construct: GST-hSOS1, 564-1049aa expressed and purified in-house
T1 sequence (Q07889 564-1049): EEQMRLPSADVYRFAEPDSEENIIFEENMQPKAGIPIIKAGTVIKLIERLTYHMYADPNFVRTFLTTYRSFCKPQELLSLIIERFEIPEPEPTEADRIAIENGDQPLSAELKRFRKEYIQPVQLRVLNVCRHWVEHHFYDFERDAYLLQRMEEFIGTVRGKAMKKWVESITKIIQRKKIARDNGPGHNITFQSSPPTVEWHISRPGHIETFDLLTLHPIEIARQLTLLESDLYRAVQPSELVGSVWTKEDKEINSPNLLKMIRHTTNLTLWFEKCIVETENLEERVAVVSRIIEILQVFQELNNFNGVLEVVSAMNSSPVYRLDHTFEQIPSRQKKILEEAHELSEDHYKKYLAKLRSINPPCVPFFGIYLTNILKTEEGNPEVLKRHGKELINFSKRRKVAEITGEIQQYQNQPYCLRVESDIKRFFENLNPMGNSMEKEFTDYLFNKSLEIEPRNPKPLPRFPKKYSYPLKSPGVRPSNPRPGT
Protocol: Interaction assay was conducted to evaluate the ability of the compounds to disrupt the protein-protein interactions between hSOS1 and hKRASG12C. Inhibitory effect of compounds on GST-hSOS1, 564-1049aa expressed and purified in-house and HIS-hKRASG12C (R06-32DH, SignalChem) interaction was assessed using HTRF detection technology in biochemical assay. Compounds were pre-incubated with 10-50 nM working solution of hSOS1 per well of a 384 well plate (Perkin Elmer, Cat #6007290) for 10 min at 20° C. in the assay buffer containing 5 mM HEPES, pH 7.4, 150 mM NaCl, 10 mM EDTA, 1 mM DTT, 0.05% BSA fraction V and 0.0025% Igepal. Reaction was initiated by adding 100-300 nM working solution of hKRASG12C in assay buffer. Total assay volume was 15 μL. Reaction was continued for 30-60 min at 20° C. Then detection solution containing MAb Anti-GST-d2 (#61GSTDLA, Cisbio BioAssays) and MAb Anti-HIS-Tb (#61HISTLA, Cisbio BioAssays), all prepared in HTRF detection buffer (#61DB10RDF, Cisbio BioAssays) was added and further incubated for 30-60 min at 20° C. HTRF signal was recorded in PHERAStar microplate reader. Ratio of signal obtained at 665 nm and 620 nm was used to compute the percent inhibition of compound utilizing the following formula: […]

[3] = target: T2, nucleotide exchange on hKRASG12C mediated by hSOS1 (Homo sapiens, UniProt Q07889); assay: Guanine nucleotide exchange assay (GNEA, HTRF); format: biochemical; conditions: HIS-hSOS1 564-1049aa mediated GTP loading onto GST-hKRASG12C 1-169aa, read-out: Guanine nucleotide exchange inhibition IC50
T2 construct: HIS-hSOS1, 564-1049aa mediated GTP loading onto GST-hKRASG12C; His (N); made in house
T2 sequence (Q07889 564-1049): T1 sequence (Q07889 564-1049)
Protocol: Example-154: Guanine nucleotide exchange assay (GNEA) GNEA assay was conducted to evaluate the effects of compounds on the nucleotide exchange on hKRASG12C mediated by hSOS1. Inhibitory effect of compounds on HIS-hSOS1, 564-1049aa mediated GTP loading onto GST-hKRASG12C, 1-169aa both expressed and purified in-house was assessed using HTRF detection technology in biochemical assay. Compounds were pre-incubated with hSOS1 working solution containing 10-50 nM hSOS1 and 200 nM EDA-GTP-DY-647P1 (Custom manufactured, Jena Biosciences) per well of a 384 well plate (Perkin Elmer, Cat #6007290) for 10 min at 20° C. in the assay buffer containing 10 mM HEPES, pH 7.4, 150 mM NaCl, 5 mM MgCl2, 1 mM DTT, 0.05% BSA fraction V and 0.0025% Igepal. Reaction was initiated by adding working solution of hKRASG12C containing 25-125 nM hKRASG12C and MAb Anti-GST-Tb (#61GSTTLA, Cisbio BioAssays) in assay buffer. Total assay volume was 15 μL. Reaction was continued for 30-60 min at 20° C. HTRF signal was recorded in PHERAStar microplate reader. Ratio of signal obtained at 665 nm and 620 nm was used to compute the percent inhibition of compound as follows.

SMILES	IC50 [1] [µM]	IC50 [2] [µM]	IC50 [3] [µM]
Cc1nc(N[C@H](C)c2cccc(C(F)(F)C(C)(O)CO)c2F)c2cc3c(cc2n1)C(C)(C)C(=O)N3C (single isomer, unassigned) [Compound 76a]	0.001 to 0.2	0.001 to 0.01	0.001 to 0.03
CC[C@]1(C)C(=O)N(C)c2cc3nc(C)nc(N[C@H](C)c4cccc(C(F)(F)C(C)(C)O)c4F)c3cc21 (single isomer, unassigned) [Compound 93a]	0.001 to 0.2	0.001 to 0.01	0.031 to 0.13
CCC1(C)C(=O)N(C)c2cc3nc(C)nc(N[C@H](C)c4cccc(C(F)(F)C(C)(C)O)c4F)c3cc21 (single isomer, unassigned) [Compound 93b]	0.001 to 0.2	0.001 to 0.01	0.031 to 0.13
COCC1(C)C(=O)N(C)c2cc3nc(C)nc(N[C@H](C)c4cccc(C(F)(F)C(C)(C)O)c4F)c3cc21 (single isomer, unassigned) [Compound 94a]	0.001 to 0.2	0.001 to 0.01	0.001 to 0.03
COCC1(C)C(=O)N(C)c2cc3c(N[C@H](C)c4cccc(C(F)(F)C(C)(C)O)c4F)nc(C)nc3cc21 (single isomer, unassigned) [Compound 98a]	0.001 to 0.2	0.001 to 0.01	0.001 to 0.03
CO[C@]1(C)C(=O)N(C)c2cc3c(N[C@H](C)c4cccc(C(F)(F)C(C)(C)O)c4F)nc(C)nc3cc21 (single isomer, unassigned) [Compound 101a]	0.001 to 0.2	0.001 to 0.01	0.031 to 0.13
CCOC1(C)C(=O)N(C)c2cc3c(N[C@H](C)c4cccc(C(F)(F)C(C)(C)O)c4F)nc(C)nc3cc21 (single isomer, unassigned) [Compound 121a]	0.001 to 0.2	0.001 to 0.01	0.031 to 0.13
COCC[C@]1(C)C(=O)N(C)c2cc3c(N[C@H](C)c4cccc(C(F)(F)C(C)(C)O)c4F)nc(C)nc3cc21 (single isomer, unassigned) [Compound 123a]	0.001 to 0.2	0.001 to 0.01	0.001 to 0.03
COC[C@](C)(O)C(F)(F)c1cccc([C@@H](C)Nc2nc(C)nc3cc4c(cc23)N(C)C(=O)C4(C)C)c1F (single isomer, unassigned) [Compound 127b]	0.001 to 0.2	0.001 to 0.01	0.001 to 0.03
Cc1nc(N[C@H](C)c2cccc(C(F)(F)C(C)(C)O)c2F)c2cc3c(cc2n1)[C@]1(CCOC1)C(=O)N3C (single isomer, unassigned) [Compound 128a]	0.001 to 0.2	0.001 to 0.01	0.001 to 0.03
Cc1nc(N[C@H](C)c2cccc(C(F)(F)C(C)(C)O)c2F)c2cc3c(cc2n1)C1(CCOC1)C(=O)N3C (single isomer, unassigned) [Compound 128b]	0.001 to 0.2	0.001 to 0.01	0.031 to 0.13
Cc1nc(N[C@H](C)c2cccc(C(F)(F)C(C)(O)CN(C)C)c2F)c2cc3c(cc2n1)C(C)(C)C(=O)N3C (single isomer, unassigned) [Compound 129a]	0.001 to 0.2	0.001 to 0.01	0.001 to 0.03
CNCC(C)(O)C(F)(F)c1cccc([C@@H](C)Nc2nc(C)nc3cc4c(cc23)N(C)C(=O)C4(C)C)c1F (single isomer, unassigned) [Compound 130a]	0.001 to 0.2	0.001 to 0.01	0.001 to 0.03
COCC[C@@]1(OC)C(=O)N(C)c2cc3c(N[C@H](C)c4cccc(C(F)(F)C(C)(C)O)c4F)nc(C)nc3cc21 (single isomer, unassigned) [Compound 132b]	0.001 to 0.2	0.001 to 0.01	0.001 to 0.03
COC1(C)C(=O)N(C)c2cc3c(N[C@H](C)c4cccc(C(F)(F)C(C)(O)CN(C)C)c4F)nc(C)nc3cc21 (single isomer, unassigned) [Compound 135]	0.001 to 0.2	0.001 to 0.01	0.001 to 0.03
Cc1nc(N[C@H](C)c2cc(N)cc(C(F)(F)F)c2)c2cc3c(cc2n1)OCC(=O)N3C [Compound 1, (R)-4-((1-(3-amino-5-(trifluoromethyl)phenyl)ethyl)amino)-2,6-dimethyl-6H-[1,4]oxazino[3,2-g]quinazolin-7(8H)-one]	0.001 to 0.2	0.001 to 0.01	0.031 to 0.13
Cc1nc(N[C@H](C)c2cccc(C(F)(F)CO)c2F)c2cc3c(cc2n1)OCC(=O)N3C [Compound 2, (R)-4-((1-(3-(1,1-difluoro-2-hydroxyethyl)-2-fluorophenyl)ethyl)amino)-2,6-dimethyl-6H-[1,4]oxazino[3,2-g]quinazolin-7(8H)-one]	0.001 to 0.2	0.001 to 0.01	0.001 to 0.03
CCN1C(=O)COc2cc3nc(C)nc(N[C@H](C)c4cccc(C(F)(F)CO)c4F)c3cc21 [Compound 13, (R)-4-((1-(3-(1,1-difluoro-2-hydroxyethyl)-2-fluorophenyl)ethyl)amino)-6-ethyl-2-methyl-6H-[1,4]oxazino[3,2-g]quinazolin-7(8H)-one]	0.001 to 0.2	0.001 to 0.01	0.001 to 0.03
Cc1nc(N[C@H](C)c2cccc(C(F)(F)CO)c2F)c2cc3c(cc2n1)OC(C)(C)C(=O)N3C [Compound 18, (R)-4-((1-(3-(1,1-difluoro-2-hydroxyethyl)-2-fluorophenyl)ethyl)amino)-2,6,8,8-tetramethyl-6H-[1,4]oxazino[3,2-g]quinazolin-7(8H)-one]	0.001 to 0.2	0.001 to 0.01	0.001 to 0.03
Cc1nc(N[C@H](C)c2cccc(C(F)(F)CO)c2F)c2cc3c(cc2n1)OC1(CC1)C(=O)N3C [Compound 25, (R)-4′-((1-(3-(1,1-difluoro-2-hydroxyethyl)-2-fluorophenyl)ethyl)amino)-2′,6′-dimethylspiro[cyclopropane-1,8′-[1,4]oxazino[3,2-g]quinazolin]-7′(6′H)-one]	0.001 to 0.2	0.001 to 0.01	0.001 to 0.03
Cc1nc(N[C@H](C)c2cccc(C(F)(F)C(C)(C)O)c2F)c2cc3c(cc2n1)N(C)C(C)(C)C(=O)N3C [Compound 28, (R)-4-((1-(3-(1,1-difluoro-2-hydroxy-2-methylpropyl)-2-fluorophenyl)ethyl)amino)-2,6,8,8,9-pentamethyl-8,9-dihydropyrazino[2,3-g]quinazolin-7(6H)-one]	0.001 to 0.2	0.001 to 0.01	0.001 to 0.03
Cc1nc(N[C@H](C)c2cccc(C(F)(F)C(C)(C)O)c2F)c2cc3c(cc2n1)c(=O)n(C)c(=O)n3C [Compound 29, (R)-9-((1-(3-(1,1-difluoro-2-hydroxy-2-methylpropyl)-2-fluorophenyl)ethyl)amino)-1,3,7-trimethylpyrimido[4,5-g]quinazoline-2,4(1H,3H)-dione]	0.001 to 0.2	0.001 to 0.01	0.001 to 0.03

Source: US20260209247A1, “Substituted Tricyclic Compounds” (Lupin Limited, priority 2019, published 2026)
